The values that follow come from PubChem BioAssay (NCI).

Common to all, as to test: NCI anticancer screen, dose series, 48 h
Assay [1] deals with SN12C renal.
For assay [2], the system named is MDA-MB-435.
Assay [3] concerns MALME-3M melanoma.
The subject of assay [4] is HL-60(TB) leukemia.
In assay [5] the test system is CCRF-CEM leukemia.
In assay [6] the test system is MCF7 breast.
The test system of assay [7] is SK-MEL-2 melanoma.
The test system of assay [8] is NCI-H226 lung.
Assay [9] relates to SF-539 CNS.
Assay [10] concerns SK-OV-3 ovarian.
Assay [11] concerns RXF 393 renal.
For assay [12], the system named is 786-0 renal.
Assay [13] has as its system OVCAR-8 ovarian.
In assay [14] the test system is RPMI-8226 leukemia.

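Following 48 hours of exposure in 96-well plates, responses at five concentrations were used to interpolate endpoints linearly. At the TGI there is no net growth.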

With `Cc1c(O)c(OC2OC(CO)C(O)C(O)C2O)cc2c1C=C[C@@H]1[C@@]2(C)C(=O)C[C@]2(C)[C@@H]([C@@](C)(O)C(O)/C=C/C(C)(C)O)[C@H](O)C[C@@]12C` (some centres undefined), the TGI in assay [1], in assay [2], in assay [3], in assay [4], in assay [5] and in assay [6] was over 100 µM throughout. For the same compound, the TGI in assay [7], in assay [8], in [9], in assay [10], in assay [11] and in [12] was over 100 µM in each case. The TGI in assay [13] was over 100 µM.
As for `O=[N+]([O-])C1=Cc2cc(Cl)ccc2OC1c1cccc2ccccc12` (centres undefined), the TGI in [1] was 2.54 µM; in [2], 5.35 µM; in [3], 2.91 µM; in assay [4], over 100 µM; in [6], 2.16 µM; in assay [7], 3.13 µM. Besides, the TGI in assay [8] stood at 4.42 µM; in [10], 4.86 µM; in [11] it was 1.46 µM; in [12] it was 1.37 µM; in assay [13], 1.42 µM.
Consider `[N-]=[N+]=NC1(c2ccccc2)C(=O)C(Cl)=C(c2ccccc2)N(c2ccccc2)C1=O` (centres undefined), for which the TGI in [1], in [3], in assay [4], in assay [5], in assay [7] and in [9] was over 100 µM each time. Also, the TGI in [10] is 78.6 µM; in assay [12] it was over 100 µM; in assay [13], over 100 µM.
With `COC(=O)[C@H](Cc1ccccc1)NC(=O)N(CCC#N)CCCCN(CCC#N)C(=O)N[C@@H](Cc1ccccc1)C(=O)OC`, the TGI in assay [1], in [2], in assay [14], in assay [3], in assay [6] and in assay [7] was over 100 µM in each case. Besides, the TGI in assay [8], in assay [10], in assay [11], in assay [12] and in assay [13] was over 100 µM in each case.
As to `C[C@@H]1[C@H](O)CC2=C(CC[C@@H](O)C2(C)C)[C@@]1(CO)CCc1ccoc1`, the TGI in assay [1], in [3], in assay [4], in assay [5], in assay [6] and in [7] was over 50 µM in each case. In addition, the TGI in [8], in [9], in [10], in assay [11], in [12] and in [13] was over 50 µM each time.
Turning to `O=S(=O)(O)c1cc(S(=O)(=O)O)c2cc(N=Nc3c(O)ccc4ccccc34)ccc2c1`, the TGI in assay [1], in assay [2], in assay [14], in assay [3], in assay [4] and in assay [5] was over 100 µM each time. Moreover, the TGI in assay [7], in assay [8], in assay [10], in assay [11], in assay [12] and in assay [13] was over 100 µM throughout.
With `CCOC(=O)C(C)Sc1nnc(COc2ccc(Cl)cc2)n1-c1ccccc1` (centres undefined), the TGI in [1] worked out at 32.9 µM; in assay [14] it was 45.7 µM; in assay [3] it was 63.6 µM; in [4] it was 39.7 µM; in [5], 34 µM; in [7], 28.4 µM. Further, the TGI in assay [8] was 46.9 µM; in [9] it was 36.9 µM; in assay [10] it was over 100 µM; in assay [11], 41.7 µM; in [12], 71.2 µM; in assay [13], 60 µM.
Regarding `COc1ccc2c(c1)CC1COc3cc(OC)ccc3C1O2` (centres undefined), the TGI in [1], in assay [2], in [14], in assay [3], in assay [5] and in assay [6] was over 100 µM each time. The TGI in assay [7], in assay [8], in assay [9], in [10], in assay [12] and in [13] was over 100 µM each time.
In the case of `O=C(c1cccc2ccccc12)C1S(=O)(=O)OCCOS1(=O)=O`, the TGI in [1], in assay [14], in [3], in assay [4], in [5] and in [6] was over 100 µM throughout. Also, the TGI in [7], in assay [12] and in assay [13] was over 100 µM each time.
For `COC1=N[C@H](C(C)C)C(OC)=N[C@H]1Cc1ccc(C[C@@H]2N=C(OC)[C@@H](C(C)C)N=C2OC)s1`, the TGI in assay [1] was over 100 µM; in assay [2], over 100 µM; in assay [3] it was over 100 µM; in [5], 50.3 µM; in [6] it was 59.4 µM; in assay [7] it was 49.3 µM. In addition, the TGI in assay [9], in [10], in assay [12] and in assay [13] was over 100 µM throughout.
`Cn1c2c(c3ccccc31)CCN=C2C1CCCOC1=O` (centres undefined): the TGI in assay [1], in assay [2], in assay [3], in assay [4], in assay [6] and in [7] was over 100 µM throughout. Besides, the TGI in assay [8], in [9], in [11], in [12] and in assay [13] was over 100 µM in each case.
Take `CC1C2CCC3C(O)C2(CC(O)C2(O)C1CC(O)C2(C)C)CC3(C)O` (centres undefined): the TGI in assay [1], in assay [2], in [3], in assay [4], in assay [5] and in [6] was over 100 µM in each case. In addition, the TGI in assay [7], in assay [8], in assay [9], in [10], in assay [12] and in [13] was over 100 µM in each case.
